Tests used:
[1] = system: LPS-activated tissue-factor (TF) activity in human monocytes; experiment: Pro-coagulant activity of tissue factor (one-stage clotting time) in LPS-stimulated human monocytes; format: cell-based; conditions: for time at which inhibition of LPS-mediated TF activity is evident: 0.1 μg/ml LPS, 5 h versus 24 h (FIG. 2); for tissue-factor activity (pro-coagulant activity, one-stage clotting time): 50 μM to 300 μM, then 0.1 μg/ml LPS for 5 h and 24 h (FIG. 2)
Method: FIG. 2—The glycerophosphoinositols inhibit LPS-activated tissue-factor activity in human monocytes. Human monocytes were purified from peripheral blood of healthy donors and incubated at 37° C. for 20 min without or with different concentrations (from 50 μM to 300 μM) GroPIns or GroPIns4P, and for a further 5 h and 24 h in the absence and in presence of 0.1 μg/ml LPS from E. coli. […] Data are means (±SD) of three independent experiments performed with cells from different donors. Asterisks indicate statistically significant differences (*p=0.015; **p<0.005; ***p=0.0003) versus their respective controls. As shown, pro-coagulant activity was not detectable in untreated monocytes, and it was induced in a time-dependent manner by LPS stimulation.
The glycerophosphoinositol, differently from the PLA2IVα inhibitor, inhibits LPS-activated tissue-factor activity in human monocytes. Human monocytes were purified from peripheral blood of two healthy donors (experiment I and II) and pre-incubated at 37° C. for 20 min without (black line) or with 300 μM glycerophosphoinositol (GroPIns, blue line) or 0.5 μM PLA2IVα inhibitor (pyrrophenone, Pf, red line), and for a further 24 h in the absence or presence of increasing concentrations of LPS from E. coli (endotoxin).
The glycerophosphoinositol inhibits in a dose-dependent manner LPS-activated tissue-factor activity in human monocytes. Human monocytes were purified from peripheral blood of three healthy donors (experiments III, IV and V) and pre-incubated at 37° C. for 20 min without or with increasing concentrations of glycerophosphoinositol (GroPIns) and for a further 24 h in the absence or presence of 10 ng/ml of LPS from E. coli (endotoxin). […] The two insets in Exp IV and V show the pro-coagulant activity of tissue factor, assessed in cells stimulated by 10 ng/ml of endotoxin, with (filled bars) or without (dotted bars) 20 min pre-incubation at 37° C., in absence (Control) or in presence of 300 μM GroPIns.
The glycerophosphoinositols inhibit LPS-activated tissue-factor activity in human monocytes.
Human monocytes were obtained from whole blood collected from healthy donors (informed consent was obtained) and anticoagulated with 0.1 vol 3.8% sodium citrate/0.15 mol/l NaCl. The leukocytes were sedimented at 180×g for 15 min at 10° C. The sedimented cells were diluted to the initial volume with citrate-saline and sedimented again. This step was repeated to minimise platelet contamination. The cells were then layered onto Lymphoprep™, and centrifuged at 700×g for 20 min at 20° C. The ring of mononuclear cells was collected and sedimented at 620×g for 7 min at 8° C. The pellet was resuspended in citrate-saline and the cells were washed twice. Monocytes were purified using a discontinuous Percoll™ density gradient; the mononuclear cell preparation was resuspended in RPMI-1640 medium supplemented with 10% heat-inactivated foetal calf serum, and was layered onto a 46% isosmotic Percoll™ solution. After centrifugation at 20° C. for 30 min at 550×g, the cells at the RPMI-1640 medium/Percoll™ interface were collected and sedimented at 620×g. The pellet was resuspended in citrate-saline and the cells were washed twice. The final monocyte preparation was then resuspended in serum-free RPMI-1640 at the concentration required.
The pro-coagulant activity of tissue factor (TF activity) was measured in cell lysates according to one-stage clotting time [as reported in (Evangelista et al., Thromb Haemost. 2005; 94, 568-577)]. One hundred μl of cell lysates were added to 100 μl of 37° C. prewarmed normal human plasma. After 30 s, 100 μl 20 mM CaCl2 were added to the mixture and the clotting time was determined using a KC4A Amellung Coagulometer (Mascia Brunelli, Milan, Italy). The data were then converted in arbitrary units by interpolation with a standard curve generated with serial dilutions of human recombinant thromboplastin (Hemoliance, Instrumentation Laboratory).

[2] = system: LPS-stimulated nuclear translocation of NF-κB; experiment: Electromobility shift assay of nuclear NF-κB in LPS-stimulated monocytes; format: cell-based, human; conditions: 50 μM, 0.1 μg/ml LPS for 1 h
Method: FIG. 7—Glycerophosphoinositols inhibit LPS-stimulated nuclear translocation of NF-κB. Human monocytes purified from the peripheral blood of healthy donors were incubated at 37° C. for 20 min without (−) or with (+) two different concentrations (300 μM and 50 μM) of GroPIns or GroPIns4P, and then for further 1 h in the absence (−) and presence (+) of 0.1 μg/ml LPS from E. coli. At the end of the incubation, the cells were lysed and the nuclear extracts were incubated with radiolabelled oligonucleotide probes that contained the NF-κB binding site. Protein-DNA complexes were separated using 6% non-denaturating acrylamide gels and visualised by autoradiography. The results shown are representative of 4 different experiments performed with cells from different donors.
Cells were harvested by centrifugation at 300×g for 5 min and lysed in ice-cold cell lysis buffer using an Ultraturrax homogeniser (Janke & Kunke, Germany, 4 strokes of 20 s each, at medium speed). The cell nuclei were pelleted by centrifugation (800×g, 5 min, at 4° C.) and recovered. […] After centrifugation (4000×g, for 10 min, at 4° C.), the supernatant was recovered and the protein concentrations in the nuclear extracts were determined using a commercially available protein assay kit (Bio-Rad Laboratories, UK). […]

[3] = 300 μM, endotoxin 10 ng/ml for 24 h (FIG. 12)

Row | SMILES | time at which inhibition of LPS-mediated TF activity is evident [1] | tissue-factor activity (pro-coagulant activity, one-stage clotting time) ([1]; 20 min pre-incubation) | TF activity [1, 3] | efficacy in reducing TF activity compared with GroPIns [1, 3] | reduction of NF-κB nuclear translocation [2] | TF activity ([1]; 300 μM, 20 min pre-incubation, increasing concentrations of endotoxin for 24 h (FIG. 10)) | TF activity ([1]; increasing concentrations of compound, endotoxin 10 ng/ml for 24 h (FIG. 11))
1 | O=P(O)(O)OC1[C@@H](O)[C@H](O)C(OP(=O)(O)OCC(O)CO)[C@@H](O)[C@H]1O (some centres unmarked) [GroPIns4P, glycerophosphoinositol 4-phosphate] | already effective at shorter times (5 h) | dose-dependent reduction in tissue-factor activity | reduce TF activity | higher efficacy than GroPIns | not at 50 μM | – | –
2 | O=P(O)(OCC(O)CO)OC1C(O)C(O)C(O)C(O)C1O (centres unmarked) [GroPIns, glycerophosphoinositol] | mainly evident at long times (24 h) | dose-dependent reduction in tissue-factor activity | reduce TF activity | – | not at 50 μM | reduces TF activity | dose-dependently reduces TF activity

Source: US9351983B2, “Use of glycerophosphoinositols for the treatment of septic shock” (CONSIGLIO NAZIONALE DELLE RICERCHE, priority 2012, dated 2016)
